One data set has as its system Type I IFNs. The experiment in a line: Whole-blood assay, type I IFN induction (HEK-Blue IFN-α/β-KO-STING readout). Type of data set: cell-based, human. The note with it: for induction of type I IFNs in whole-blood assay (comparison in words): healthy human donors, dose-response; for EC50: whole blood assay, type I IFN, read-out: EC50 (μM) IFN in WBA. From the text: Type I IFNs: HEK-Blue™ IFN-α/β-KO-STING: These cells, in which the STING gene has been inactivated, are derived from HEK293 cell line known as HEK-Blue™ IFN-α/β (InvivoGen catalog code: hkb-ifnab). HEK-Blue™ IFN-α/β cells enable detection of bioactive human type I IFNs through monitoring of activation of the […]. These cells were generated by stable transfection of HEK293 cells with the human STAT2 and IRF9 genes to obtain a fully active Type-I IFN signaling pathway. The other genes of the pathway (IFNAR1, IFNAR2, JAK1, TyK2 and STAT1) are naturally expressed in sufficient amounts. The cells were further transfected with a SEAP reporter gene under control of an IFNα/β-inducible ISG54 promoter. This promoter comprises five IFN-stimulated response elements (ISREs) fused to a minimal promoter of the human ISG54 gene, which is unresponsive to activators of the NF-κB or AP-1 pathways. Stimulation of HEK-Blue™ IFN-α/β cells with human IFN-α or IFN-β activates the JAK/STAT/ISGF3 pathway and subsequently induces production of SEAP. Production of type I IFNs in these cells is measured using QUANTI-Blue™.
Briefly, the samples were collected by venipuncture into sodium heparin tubes at the time of donation. The samples were analyzed for rhesus (Rh), blood group, hematocrit and serological status (AgHBS, HIV, HCV, HTLV, HBC, CMV, Syph). The tubes were picked up on the day of collection and subsequently tested (blood analysis, and treatment with test items) on the same day.
Each blood sample was diluted (1:2 [v/v]) in RPMI medium and aliquoted into 96-well plates (180-μL wells) containing either CDN (√10-fold serial dilution starting from 50 μM). The plates were incubated at 37° C. in a 5% CO2 incubator for 18 hours. Then, the supernatants were collected, transferred into the corresponding wells of round-bottom 96-well plates, and either stored at −80° C., or immediately tested in the appropriate reporter cell line.
A new 96-wells plate was prepared for each reporter cell lines tested, as follows: 10 μL of supernatant from the previous plate were added to the corresponding well in the new reporter cell plate. Then, a 190-μL aliquot of cells of the desired reporter cell line, previously harvested in medium containing heat-inactivated serum and counted, was added to each well (approximately 50,000 cells/well), and the plate was incubated for approximately 20 hours. The desired cytokine induction activity was determined using the QUANTI-Blue™ assay, as previously described. Briefly, 20 μL of supernatant from the previously incubated plate was transferred to the corresponding well of a new 96-well plate in which 180 μL of QUANTI-Blue™ reagent had previously been added.

Data set [1] concerns the target STING (Homo sapiens, UniProt Q86WV6, G230A/H232R/R293Q/R71H). The data set can be described thus: ISG54 (IRF pathway) reporter assay in THP1-Dual cells. The settings on record: for ISG activity compared with unmodified parental CDN: THP1-Dual cells.
Data set [2] is described as follows: Lipid-based nanoparticle formation (PdI, Z Ave). Format: physicochemical. The settings on record: for Z Ave (nm): lipid BAM-CDN particles; for PdI: polydispersity index of lipid BAM-CDN.
Data set [3] has as its target T1, STING (Mus musculus, UniProt Q3TBT3).
T1 sequence (Q3TBT3 1-378): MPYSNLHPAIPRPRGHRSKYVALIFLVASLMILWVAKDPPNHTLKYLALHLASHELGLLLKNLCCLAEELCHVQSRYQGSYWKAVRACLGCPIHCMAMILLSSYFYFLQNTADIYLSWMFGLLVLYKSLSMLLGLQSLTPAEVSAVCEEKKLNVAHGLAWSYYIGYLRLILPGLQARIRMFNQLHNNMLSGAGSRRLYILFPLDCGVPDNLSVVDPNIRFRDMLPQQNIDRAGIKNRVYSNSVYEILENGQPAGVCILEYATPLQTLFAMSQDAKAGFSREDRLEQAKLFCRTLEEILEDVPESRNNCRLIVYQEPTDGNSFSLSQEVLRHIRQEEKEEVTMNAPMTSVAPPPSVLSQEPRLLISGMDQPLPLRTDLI
The experiment in a line: ISG reporter assay in RAW-Lucia ISG cells.

The text below walks through data of patent US11730817B2, “Pro-cyclic dinucleotides and pro-cyclic dinucleotide conjugates for cytokine induction” (INVIVOGEN, priority 2017, dated 2023).

“Also recorded” adds a separate entry of the source.

Sequence of STING (Homo sapiens, UniProt Q86WV6, G230A/H232R/R293Q/R71H) (Q86WV6 whole entry R71H/G230A/H232R/R293Q): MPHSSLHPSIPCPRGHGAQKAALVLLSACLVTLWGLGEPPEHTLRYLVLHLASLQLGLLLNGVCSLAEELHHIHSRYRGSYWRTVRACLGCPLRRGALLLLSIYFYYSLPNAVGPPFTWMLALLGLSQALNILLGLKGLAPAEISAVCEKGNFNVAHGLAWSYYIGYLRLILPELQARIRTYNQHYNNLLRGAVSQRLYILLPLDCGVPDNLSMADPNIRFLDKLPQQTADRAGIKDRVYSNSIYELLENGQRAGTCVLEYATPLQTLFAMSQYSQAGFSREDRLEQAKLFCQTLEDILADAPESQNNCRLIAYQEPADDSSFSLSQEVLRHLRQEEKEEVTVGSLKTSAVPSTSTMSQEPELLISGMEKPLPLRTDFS

As for `Nc1ncnc2c1ncn2[C@@H]1O[C@@H]2COP(=O)(S)O[C@H]3C[C@H](n4cnc5c(=O)[nH]cnc54)O[C@@H]3COP(=O)(S)O[C@H]2[C@H]1F` (some centres unmarked) [CL702, reference compound], the “induction of type I IFNs in whole-blood assay (comparison in words)” value in the data set with Type I IFNs is given as “superior induction of type I interferons compared to the reference compound 2′3′-cGAMP”.
Same read-out and setting: the entry for `CC(C)[C@H](NC(=O)OC(C)(C)C)C(=O)N[C@@H](CCCNC(N)=O)C(=O)Nc1ccc(CSP2(=O)OC[C@H]3O[C@@H](n4cnc5c(=O)[nH]cnc54)C[C@@H]3OP(=O)(SCc3ccc(NC(=O)[C@H](CCCNC(N)=O)NC(=O)[C@@H](NC(=O)OC(C)(C)C)C(C)C)cc3)OC[C@H]3O[C@@H](n4cnc5c(N)ncnc54)[C@H](F)[C@@H]3O2)cc1` (some centres unmarked) [CL793] is “superior induction of type I interferons compared to the reference compound 2′3′-cGAMP”.
With `CCCCCCCC(=O)N[C@H](C(=O)N[C@@H](C)C(=O)Nc1ccc(CSP2(=O)OC[C@H]3O[C@@H](n4cnc5c(N)ncnc54)[C@H](F)[C@@H]3OP(=O)(O)OC[C@H]3O[C@@H](n4cnc5c(O)ncnc54)C[C@@H]3O2)cc1)C(C)C` (some centres unmarked) [CL821], the “EC50 rank order (lipid chain length)” value on STING [1] (FIG. 6, human or murine reporter cell) is “EC50 (CL821=C8-CL797)<EC50 (CL820=C4-CL797)”. Besides, in the data set with Type I IFNs, the half-maximal effective concentration (EC50) was 7.1 µM. In addition, in data set [2], the “Z Ave (nm)” value came out at 54.9 nm and the PdI was 0.27.
For `CCCCCCCCCCCCCC(=O)OC(CCCCCCCCCCC)CC(=O)N[C@H](C(=O)N[C@@H](C)C(=O)Nc1ccc(CSP2(=O)OC[C@H]3O[C@@H](n4cnc5c(N)ncnc54)[C@H](F)[C@@H]3OP(=O)(O)OC[C@H]3O[C@@H](n4cnc5c(O)ncnc54)C[C@@H]3O2)cc1)C(C)C` (some centres unmarked) [CL838], the concentration giving a half-maximal response (EC50) in the data set on Type I IFNs worked out at 0.009 µM. Besides, in data set [2], the “self-organization in lipid-based nanoparticles / particle size” value was “can self-organize/assemble in lipid-based nanoparticles”, the “Z Ave (nm)” value came to 91 nm and the PdI is reported as 0.214.
`CCCCCCCC(=O)N[C@H](C(=O)N[C@@H](C)C(=O)Nc1ccc(CSP2(=O)OC[C@H]3O[C@@H](n4cnc5c(N)ncnc54)[C@H](F)[C@@H]3OP(=O)(S)OC[C@H]3O[C@@H](n4cnc5c(O)ncnc54)[C@H](F)[C@@H]3O2)cc1)C(C)C` (some centres unmarked) [CL840]: in the data set on Type I IFNs, the EC50 amounted to 0.13 µM. For the same compound, in data set [2], the “Z Ave (nm)” value was determined as 168.9 nm and the PdI is 0.08.
The matching figures for `CCCCCCCC(=O)N[C@H](C(=O)N[C@@H](C)C(=O)Nc1ccc(CSP2(=O)OC[C@H]3O[C@@H](n4cnc5c(N)ncnc54)[C@H](F)[C@@H]3OP(=O)(O)OC[C@H]3O[C@@H](n4cnc5c(O)ncnc54)[C@H](F)[C@@H]3O2)cc1)C(C)C` (some centres unmarked) [CL841]: 3.03 µM, 264.3 nm and 0.475.
`CCCCCCCC(=O)N[C@H](C(=O)N[C@@H](C)C(=O)Nc1ccc(CSP2(=O)OC[C@H]3O[C@@H](n4cnc5c(O)ncnc54)[C@H](F)[C@@H]3OP(=O)(SCc3ccc(NC(=O)[C@H](C)NC(=O)[C@@H](NC(=O)CCCCCCC)C(C)C)cc3)OC[C@H]3O[C@@H](n4cnc5c(N)ncnc54)[C@H](F)[C@@H]3O2)cc1)C(C)C` (some centres unmarked) [CL842]: the EC50 in the data set with Type I IFNs is 1.4 µM. For the same compound, in data set [2], the “self-organization in lipid-based nanoparticles / particle size” value is recorded as “can self-organize/assemble in lipid-based nanoparticles”, the “Z Ave (nm)” value is reported as 184 nm and the PdI is given as 0.086.
As for `CCCCCCCCCCCCCCCC(=O)N[C@H](C(=O)N[C@@H](CCCNC(N)=O)C(=O)Nc1ccc(CSP2(=O)OC[C@H]3O[C@@H](n4cnc5c(N)ncnc54)[C@H](F)[C@@H]3OP(=O)(O)OC[C@H]3O[C@@H](n4cnc5c(O)ncnc54)C[C@@H]3O2)cc1)C(C)C` (some centres unmarked) [CL848], the “ISG activity compared with unmodified parental CDN” value on STING [3] is recorded as “higher ISG activity than the unmodified parental CDN”. Further, the “ISG activity compared with unmodified parental CDN” value on STING [1] is listed as “higher ISG activity than the unmodified parental CDN”. In addition, the 50% effective concentration (EC50) with Type I IFNs came to 0.11 µM. Moreover, in data set [2], the “Z Ave (nm)” value is listed as 84.3 nm and the PdI was 0.18.
Take `CCCCCCCCCCCCCCCC(=O)N[C@H](C(=O)N[C@@H](C)C(=O)Nc1ccc(CSP2(=O)OC[C@H]3O[C@@H](n4cnc5c(N)ncnc54)[C@H](F)[C@@H]3OP(=O)(O)OC[C@H]3O[C@@H](n4cnc5c(O)ncnc54)[C@H](F)[C@@H]3O2)cc1)C(C)C` (some centres unmarked) [CL849]: the “ISG activity compared with unmodified parental CDN” value at STING [3] and on STING [1] was “higher ISG activity than the unmodified parental CDN” each time. In addition, the “Z Ave (nm)” value in data set [2] was 152.4 nm. In data set [2], the PdI is listed as 0.56.
As to `CCCCCCCCCCCCCCCC(=O)N[C@H](C(=O)N[C@@H](CCCNC(N)=O)C(=O)Nc1ccc(CSP2(=O)OC[C@H]3O[C@@H](n4cnc5c(N)ncnc54)[C@H](F)[C@@H]3OP(=O)(S)OC[C@H]3O[C@@H](n4cnc5c(O)ncnc54)[C@H](F)[C@@H]3O2)cc1)C(C)C` (some centres unmarked) [CL853], the “ISG activity compared with unmodified parental CDN” value on STING [3] and at STING [1] was “higher ISG activity than the unmodified parental CDN” in each case. In addition, in the data set with Type I IFNs, the EC50 was 0.14 µM. Moreover, in data set [2], the “Z Ave (nm)” value worked out at 155.9 nm. In data set [2], the PdI was found to be 0.188.
For the compound `CCCCCCCCCCCCCC(=O)OC(CCCCCCCCCCC)CC(=O)N[C@H](C(=O)N[C@@H](CCCNC(N)=O)C(=O)Nc1ccc(CSP2(=O)OC[C@H]3O[C@@H](n4cnc5c(N)ncnc54)[C@H](F)[C@@H]3OP(=O)(O)OC[C@H]3O[C@@H](n4cnc5c(O)ncnc54)[C@H](F)[C@@H]3O2)cc1)C(C)C` (some centres unmarked) [CL860], the EC50 in the data set on Type I IFNs was 0.009 µM. For the same compound, in data set [2], the “self-organization in lipid-based nanoparticles / particle size” value is given as “can self-organize/assemble in lipid-based nanoparticles; also recorded: the size tends to be smaller, around the size of Small Unilamellar Vesicle”; the “Z Ave (nm)” value amounted to 33 nm; the PdI was found to be 0.248.
For `CCCCCCCCCCCCCC(=O)OC(CCCCCCCCCCC)CC(=O)N[C@H](C(=O)N[C@@H](CCCNC(N)=O)C(=O)Nc1ccc(CSP2(=O)OC[C@H]3O[C@@H](n4cnc5c(N)ncnc54)[C@H](F)[C@@H]3OP(=O)(S)OC[C@H]3O[C@@H](n4cnc5c(O)ncnc54)[C@H](F)[C@@H]3O2)cc1)C(C)C` (some centres unmarked) [CL861], in the data set with Type I IFNs, the EC50 amounted to 0.01 µM. In addition, in data set [2], the “self-organization in lipid-based nanoparticles / particle size” value was “can self-organize/assemble in lipid-based nanoparticles; also recorded: the size tends to be smaller, around the size of Small Unilamellar Vesicle”; the “Z Ave (nm)” value worked out at 36.8 nm; the PdI came to 0.183.
Consider `CCCCCCCCCCCCCCCC(=O)N[C@H](C(=O)N[C@@H](C)C(=O)Nc1ccc(CSP2(=O)OC[C@H]3O[C@@H](n4cnc5c(N)ncnc54)[C@H](F)[C@@H]3OP(=O)(S)OC[C@H]3O[C@@H](n4cnc5c(O)ncnc54)[C@H](F)[C@@H]3O2)cc1)C(C)C` (some centres unmarked) [CL863], for which, at STING [3], the “ISG activity compared with unmodified parental CDN” value is on record as “higher ISG activity than the unmodified parental CDN”. Further, the “ISG activity compared with unmodified parental CDN” value at STING [1] was “higher ISG activity than the unmodified parental CDN”. In addition, the EC50 in the data set on Type I IFNs was 0.15 µM. Moreover, in data set [2], the “Z Ave (nm)” value is listed as 106.6 nm and the PdI was determined as 0.416.
